From patent publication US10507213B2, “Method for treating cancer using a selenourea-coordinated gold(I)-carbene complex” (King Fahd University of Petroleum and Minerals, priority 2017, dated 2019)

Tests used:
A549 (lung carcinoma) = experiment: in vitro cytotoxicity, MTT assay, A549; format: cell-based, human; conditions: 72 h incubation, three independent experiments, read-out: IC50 values against A549 cancer cell line
Method: The complexes, [Au(IPr)Cl] and [Au(IPr)(Seu)]PF6 (1) were tested for their in vitro cytotoxic effects against human cell lines; MCF7 (breast cancer), HCI15 (colon cancer) and A549 (lung carcinoma) as reported previously. See M. Altaf, M. Monim-ul-Mehboob, A. A. A. Seliman, A. A. Tsai), V. Dhuna, G. Bhatia, K. Dhuna, Synthesis, X-ray Structures, Spectroscopic Analysis and Anticancer Activity of Novel Gold(I) Carbene Complexes, J. Organomet. Chem, 765 (2014) 68-79, incorporated herein by reference in its entirety. The cells were seeded at the concentration of 3×10^3 cells/well in 100 μL of DMEM containing 10% fetal bovine serum (FBS) in a 96-well tissue culture plate and incubated for 72 h at 37° C., 5% CO2 and 90% relative humidity in a CO2 incubator. […] The medium in the wells was cast off and 100 μL of DMEM containing MTT (0.5 mg/ml) was added to the wells, with subsequent incubation in the CO2 incubator at 37° C. in the dark for 4 h. After incubation, purple-colored formazan produced by the cells appeared as dark crystals in the bottom of the wells. The culture medium was carefully removed from each well to prevent disruption of the monolayer and 100 μL of dimethylsulfoxide (DMSO) was added to each well. The solution in the wells was thoroughly mixed to dissolve the formazan crystals which produce a purple solution. The absorbance of the 96 well-plates was measured at 570 nm with LabSystems Multiskan EX-ELISA reader against a reagent blank. The experimental results are calculated as the micromolar concentration of 50% cell growth inhibition (IC50) of each drug. The MTT assay was carried out in three independent experiments for each analysis.
The complexes, [Au(Ipr)Cl] and [Au(Ipr)(Seu)]PF6 or Complex (I), as well as cisplatin (standard anticancer drug) were tested for in vitro cytotoxicity against three human cancer cell lines; A549 (lung carcinoma), HCT15 (colon cancer cells) and MCF7 (breast cancer cells) using MTT assay.
The IC50 values (as μM) obtained from the plot of the concentration of compounds against the percentage of cell viability are given in Table 4. […]

[1] = tested on: MCF7 (breast cancer cells); experiment: in vitro cytotoxicity, MTT assay, MCF7; format: cell-based, human; conditions: 72 h incubation, three independent experiments, read-out: IC50 values against MCF7 cancer cell line
Method: (§1) The complexes, [Au(IPr)Cl] and [Au(IPr)(Seu)]PF6 (1) were tested for their in vitro cytotoxic effects against human cell lines; MCF7 (breast cancer), HCI15 (colon cancer) and A549 (lung carcinoma) as reported previously. See M. Altaf, M. Monim-ul-Mehboob, A. A. A. Seliman, A. A. Tsai), V. Dhuna, G. Bhatia, K. Dhuna, Synthesis, X-ray Structures, Spectroscopic Analysis and Anticancer Activity of Novel Gold(I) Carbene Complexes, J. Organomet. Chem, 765 (2014) 68-79, incorporated herein by reference in its entirety. The cells were seeded at the concentration of 3×10^3 cells/well in 100 μL of DMEM containing 10% fetal bovine serum (FBS) in a 96-well tissue culture plate and incubated for 72 h at 37° C., 5% CO2 and 90% relative humidity in a CO2 incubator. After that 100 μL of 100, 50, 25 and 12.5 μM solutions of cisplatin and gold(I) complexes prepared in DMEM were added to the cells and the cultures were incubated for 72 h. The medium in the wells was cast off and 100 μL of DMEM containing MTT (0.5 mg/ml) was added to the wells, with subsequent incubation in the CO2 incubator at 37° C. in the dark for 4 h. After incubation, purple-colored formazan produced by the cells appeared as dark crystals in the bottom of the wells. The culture medium was carefully removed from each well to prevent disruption of the monolayer and 100 μL of dimethylsulfoxide (DMSO) was added to each well. The solution in the wells was thoroughly mixed to dissolve the formazan crystals which produce a purple solution. The absorbance of the 96 well-plates was measured at 570 nm with LabSystems Multiskan EX-ELISA reader against a reagent blank. The experimental results are calculated as the micromolar concentration of 50% cell growth inhibition (IC50) of each drug. The MTT assay was carried out in three independent experiments for each analysis. […]

[2] = tested on: HCT15 (colon cancer cells); experiment: in vitro cytotoxicity, MTT assay, HCT15; format: cell-based, human; conditions: 72 h incubation, three independent experiments, read-out: IC50 values against HCT15 cancer cell line
Method: as §1

[3] = stability in polar solvents; format: physicochemical; conditions: water, methanol, ethanol, acetone; deuterated solvents such as dichloromethane
[4] = stability by square wave stripping voltammetry (SWSV) in phosphate buffer; format: physicochemical; conditions: phosphate buffer pH 7.0, SWSV, 50, 75 and 100 μM
Method: (§2) Electrochemical (Square wave stripping voltammetry, SWSV) measurements were performed on a CH Instrument (CHI 1232A) potentiostat. Electrochemical cell comprises of a platinum wire as a counter electrode, an Ag/AgCl saturated with KCl as reference electrode and glassy carbon electrode (GCE; 3.0 mm diameter, Model CHI104, CH Instruments, Austin, Tex.) as a working electrode inserted into 2.0 mL glass cell containing phosphate buffer solution, pH 7.0 as supporting electrolyte. 0.1 M buffer solution was prepared by mixing, appropriate volumes of 0.2 M monosodium phosphate and disodium phosphate prepared with distilled water. Stock solutions of the complex prepared with methanol, while L-tyrosine and L-tryptophan were prepared by dissolving in 0.10 M NaOH in ratio 1:4 with distilled water. GCE was polished with 0.05 μm alumina, rinsed with distilled water prior to every SWSV measurements at room temperature in a quiescent condition at potential windows between −0.20 V and 1.20 V for the stability and 0.00 V and 1.20 V for the interaction studies. Working conditions are; pulse width (increment) 4 mV, pulse height (amplitude) 25 mV and frequency, 15 Hz.
(§3) The stability and electrochemical behavior of complex 1 were examined by its electroactive properties in phosphate buffer solution of pH 7.0 using SWSV technique (Square wave stripping voltammetry). […]

[5] = solubility in phosphate buffer estimated from SWSV; format: physicochemical; conditions: 0.1 M phosphate buffer (pH 7.0); estimation based on the highest soluble concentration
Method: as §2, §3

Row | Compound | IC50 (A549 (lung carcinoma)) [µM] | IC50 [1] [µM] | IC50 [2] [µM] | stability in polar solvents [3] | stability in aqueous solution [4] | solubility in phosphate buffer [5] [mg/100 ml]
1 | N.N.[Cl][Pt][Cl] [Cisplatin] | 42 ± 2 | 23 ± 4 | 32 ± 2 |  |  | 
2 | CC(C)c1cccc(C(C)C)c1-n1cc[n+](-c2c(C(C)C)cccc2C(C)C)[c]1[Au-][Se+]=C(N)N.F[P-](F)(F)(F)(F)F [Complex 1, [Au(IPr)(Seu)]PF6] | 82 ± 1 | 75 ± 3 | 76 ± 2 | stable in polar solvents such as water, methanol, ethanol and acetone | stable in aqueous solution | ≥ 8.53
3 | chlorido[1,3-Bis(2,6-di isopropylphenyl)imidazol-2-ylidene]gold(I) [[Au(Ipr)Cl]] | 180 ± 2 | 110 ± 2 | 122 ± 1 |  |  | 
